Measured values: patent US20210038559A1, “CANNABINOIDS AND DERIVATIVES FOR PROMOTING IMMUNOGENICITY OF TUMOR AND INFECTED CELLS” (priority 2018, published 2021)

Test system: MHC-I expression by COLO 205 cells
Test: cells
Type: cell-based, human
Conditions: not given
Protocol: A panel of synthetic cannabinoids (Cayman Chemical, #9002891) was tested for MHC class I-inducing capability in COLO 205 cells as described above. COLO 205 cells were treated with the compounds at a concentration of 35 μM and evaluated for cell surface MHC class I expression after 48 hours. Cells were harvested, stained with MHC-I mAb W6/32 (Thermo Fisher). MHC-I expression was determined by flow cytometry.

For `CCC(F)CCn1nc(C(=O)N[C@H](C(=O)OC)C(C)C)c2ccccc21` (some centres unmarked) [Example 210, methyl (1-(3-fluoropentyl)-1H-indazole-3-carbonyl)-1-valinate], which “Induction Fold” value is on record?
Its value is 1.84 Fold.

For `CCCCCn1cc(C(=O)c2cc(C)cc3ccccc23)c2ccccc21` [Example 219, (3-methylnaphthalen-1-y1)(1-pentyl-1H-indol-3-yl)methanone], which “Induction Fold” value is on record?
The value was 1.78 Fold.

With `CCCCCn1cc(Cc2cccc3ccccc23)c2ccccc21` [Example 252, 3-(1-naphthalenylmethyl)-1-pentyl-1H-indole] as the compound, how does the “Induction Fold” value read?
The value was 1.61 Fold.

Same assay, conditions: Homo sapiens, COLO 205, 48 h, MHC-I expression, COLO 205 cells, compounds at 35 μM, 48 hours, flow cytometry (W6/32); read-out: Induction Fold

Which fold induction at 35 µM does the source give for `CCCCCn1cc(C(=O)c2ccc(C)c3ccccc23)c2ccccc21` [Example 211, (4-methyl-1-naphthalenyl)(1-pentyl-1H-indol-3-yl)-methanone] here?
Its fold induction at 35 µM is 1.83.

For `NC(=O)[C@H](Cc1ccccc1)NC(=O)c1nn(Cc2ccc(F)cc2)c2ccccc12` [Example 213, N-[(1S)-2-amino-2-oxo-1-(phenylmethyl)ethyl]-1-[(4-fluorophenyl)methyl]-1H-indazole-3-carboxamide], which fold induction at 35 µM is on record?
The fold induction at 35 µM was 1.81.

`O=C(c1cn(CCCCCF)c2ccccc12)N1CCCC1` [Example 215, (1-(5-fluoropentyl)-1H-indol-3-yl)(pyrrolidin-1-yl)methanone] was tested. Which fold induction at 35 µM did it give?
The fold induction at 35 µM was 1.8.

For `CCc1ccc(C(=O)c2cn(CCCCCF)c3ccccc23)c2ccccc12` [Example 216, (4-ethyl-1-naphthalenyl)[1-(5-fluoropentyl)-1H-indol-3-yl]-methanone], which fold induction at 35 µM is on record?
The fold induction at 35 µM was 1.79.

Which fold induction at 35 µM does the source give for `CC(C)(C)C(NC(=O)c1nn(Cc2ccccc2)c2ccccc12)C(N)=O` (centres unmarked) [Example 217, N-(1-amino-3,3-dimethyl-1-oxobutan-2-yl)-1-benzyl-1H-indazole-3-carboxamide] here?
The fold induction at 35 µM was 1.79.

How did the fold induction at 35 µM turn out when `O=C(Oc1ccc2cnccc2c1)c1cn(CCCCCF)c2ccccc12` [Example 218, isoquinolin-6-yl 1-(5-fluoropentyl)-1H-indole-3-carboxylate] was run?
Its fold induction at 35 µM is 1.78.

For `O=C(c1cccc2ccccc12)c1cn(Cc2ccc(F)cc2)c2ccccc12` [Example 220, (1-(4-fluorobenzyl)-1H-indol-3-yl)(naphthalen-1-yl)methanone], which fold induction at 35 µM is on record?
The fold induction at 35 µM was 1.77.

With `CC(C)[C@H](NC(=O)c1nn(Cc2cccc(F)c2)c2ccccc12)C(N)=O` [Example 221, N-[(1S)-1-(aminocarbonyl)-2-methylpropyl]-1-[(3-fluorophenyl)methyl]-1H-indazole-3-carboxamide] as the compound, how does the fold induction at 35 µM read?
Its fold induction at 35 µM is 1.77.

How did the fold induction at 35 µM turn out when `CC1(C)C(C(=O)c2cn(CCCCCBr)c3ccccc23)C1(C)C` [Example 222, [1-(5-bromopentyl)-1H-indol-3-yl](2,2,3,3-tetramethylcyclopropyl)-methanone] was run?
The fold induction at 35 µM was 1.76.

With `CCCCCn1cc(C(=O)c2ccc(Cl)c3ccccc23)c2ccccc21` [Example 223, (4-chloro-1-naphthalenyl)(1-pentyl-1H-indol-3-yl)-methanone] as the compound, how does the fold induction at 35 µM read?
The fold induction at 35 µM was 1.76.

Which fold induction at 35 µM does the source give for `CCCCCn1nc(C(=O)Nc2cccc3ccccc23)c2ccccc21` [Example 224, N-1-naphthalenyl-1-pentyl-1H-indazole-3-carboxamide] here?
Its fold induction at 35 µM is 1.75.

With `CC(C)CCCCn1cc(C(=O)C2C(C)(C)C2(C)C)c2ccccc21` [Example 225, (1-(5-methylhexyl)-1H-indol-3-yl)(2,2,3,3-tetramethylcyclopropyl)methanone] as the compound, how does the fold induction at 35 µM read?
The fold induction at 35 µM was 1.75.

For `O=C(Nc1cccc(-c2ccccc2)c1)OC1CCCCC1` [Example 226, N-[1,1′-biphenyl]-3-yl-carbamic acid, cyclohexyl ester], which fold induction at 35 µM is on record?
Its fold induction at 35 µM is 1.74.

With `NC(=O)[C@H](Cc1ccccc1)NC(=O)c1nn(CCCCCF)c2ccccc12` [Example 227, (S)-N-(1-amino-1-oxo-3-phenylpropan-2-yl)-1-(5-fluoropentyl)-1H-indazole-3-carboxamide] as the compound, how does the fold induction at 35 µM read?
Its fold induction at 35 µM is 1.72.

How did the fold induction at 35 µM turn out when `CC(C)(NC(=O)c1nn(CCCCCF)c2ccccc12)c1ccccc1` [Example 228, 1-(5-fluoropentyl)-N-(1-methyl-1-phenylethyl)-1H-indazole-3-carboxamide] was run?
The fold induction at 35 µM was 1.72.

`O=C(c1nn(CCCCCF)c2ccccc12)N1CCCC1` [Example 230, (1-(5-fluoropentyl)-1H-indazol-3-yl)(pyrrolidin-1-yl)methanone] was tested. Which fold induction at 35 µM did it give?
Its fold induction at 35 µM is 1.72.

How did the fold induction at 35 µM turn out when `CCCCCn1cc(C(=O)c2cccc3ccc(CC)cc23)c2ccccc21` [Example 231, (7-ethyl-1-naphthalenyl)(1-pentyl-1H-indol-3-yl)-methanone] was run?
The fold induction at 35 µM was 1.72.

Which fold induction at 35 µM does the source give for `CCCCCn1nc(C(=O)Nc2cccc3cccnc23)c2ccccc21` [Example 232, 1-pentyl-N-(quinolin-8-yl)-1H-indazole-3-carboxamide] here?
Its fold induction at 35 µM is 1.71.

Which fold induction at 35 µM does the source give for `CC(F)CCCCn1cc(C(=O)c2cccc3ccccc23)c2ccccc21` (centres unmarked) [Example 233, (1-(5-fluorohexyl)-1H-indol-3-yl)(naphthalen-1-yl)methanone] here?
Its fold induction at 35 µM is 1.71.

Which fold induction at 35 µM does the source give for `CCCCCn1cc(C(=O)c2cc(OC)cc3ccccc23)c2ccccc21` [Example 234, (3-methoxynaphthalen-1-yl)(1-pentyl-1H-indol-3-yl)methanone] here?
The fold induction at 35 µM was 1.71.

`CC(F)CCCn1cc(C(=O)C2C(C)(C)C2(C)C)c2ccccc21` (centres unmarked) [Example 235, (1-(4-fluoropentyl)-1H-indol-3-yl)(2,2,3,3-tetramethylcyclopropyl)methanone] was tested. Which fold induction at 35 µM did it give?
The fold induction at 35 µM was 1.7.

How did the fold induction at 35 µM turn out when `CCOC(=O)[C@@H](NC(=O)c1nn(CCCCCF)c2ccccc12)C(C)C` [Example 236, ethyl (1-(5-fluoropentyl)-1H-indazole-3-carbonyl)-L-valinate] was run?
The fold induction at 35 µM was 1.7.

Which fold induction at 35 µM does the source give for `CC(C)[C@H](NC(=O)c1cn(Cc2ccc(F)cc2)c2ccccc12)C(N)=O` [Example 237, N-[(1S)-1-(aminocarbonyl)-2-methylpropyl]-1-[(4-fluorophenyl)methyl]-1H-indole-3-carboxamide] here?
The fold induction at 35 µM was 1.7.

With `CCCCCn1cc(C(=O)c2cccc3c(Cl)cccc23)c2ccccc21` [Example 238, (5-chloronaphthalen-1-yl)(1-pentyl-1H-indol-3-yl)methanone] as the compound, how does the fold induction at 35 µM read?
Its fold induction at 35 µM is 1.7.

For `COC(=O)[C@@H](NC(=O)c1ccc2c(c1)c1ccccc1n2CC1CCCCC1)C(C)(C)C` [Example 239, methyl (S)-2-(9-(cyclohexylmethyl)-9H-carbazole-3-carboxamido)-3,3-dimethylbutanoate], which fold induction at 35 µM is on record?
The fold induction at 35 µM was 1.69.

With `CCCCCn1cc(C(=O)c2cccc3cc(C)ccc23)c2ccccc21` [Example 240, (6-methylnaphthalen-1-yl)(1-pentyl-1H-indol-3-yl)methanone] as the compound, how does the fold induction at 35 µM read?
The fold induction at 35 µM was 1.69.

Which fold induction at 35 µM does the source give for `CCCCCn1c(C)c(C(=O)c2ccc(CC)c3ccccc23)c2ccccc21` [Example 244, (4-ethyl-1-naphthalenyl)(2-methyl-1-pentyl-1H-indol-3-yl)-methanone] here?
The fold induction at 35 µM was 1.66.

`CCCCCn1cc(C(=O)N[C@@H](Cc2ccccc2)C(N)=O)c2ccccc21` [Example 246, (S)-N-(1-amino-1-oxo-3-phenylpropan-2-yl)-1-pentyl-1H-indole-3-carboxamide] was tested. Which fold induction at 35 µM did it give?
The fold induction at 35 µM was 1.65.

How did the fold induction at 35 µM turn out when `CC(C)(C)C(NC(=O)c1nn(Cc2ccc(F)cc2)c2ccccc12)C(N)=O` (centres unmarked) [Example 247, N-[1-(aminocarbonyl)-2,2-dimethylpropyl]-1-[(4-fluorophenyl)methyl]-1H-indazole-3-carboxamide] was run?
The fold induction at 35 µM was 1.64.

`O=C(Oc1cccc2ccccc12)c1cn(Cc2ccc(F)cc2)c2ccccc12` [Example 248, 1-[(4-fluorophenyl)methyl]-1H-indole-3-carboxylic acid, 1-naphthalenyl ester] was tested. Which fold induction at 35 µM did it give?
The fold induction at 35 µM was 1.63.

With `CCCCCn1cc(C(=O)Oc2cccc3ccccc23)c2ccccc21` [Example 249, naphthalen-1-yl 1-pentyl-1H-indole-3-carboxylate] as the compound, how does the fold induction at 35 µM read?
The fold induction at 35 µM was 1.63.

`CCN(CC)CCN1C(=O)CN=C(c2ccccc2F)c2cc(Cl)ccc21` [Example 250, 7-chloro-1-[2-(diethylamino)ethyl]-5-(2-fluorophenyl)-1,3-dihydro-2H-1,4-benzodiazepin-2-one] was tested. Which fold induction at 35 µM did it give?
Its fold induction at 35 µM is 1.63.

For `CC(C)CCn1cc(C(=O)c2ccc3ccccc3c2)c2ccccc21` [Example 251, (1-isopentyl-1H-indol-3-yl)(naphthalen-2-yl)methanone], which fold induction at 35 µM is on record?
The fold induction at 35 µM was 1.62.

`COc1ccc(C(=O)c2cn(CC3CCCCC3)c3ccccc23)c2ccccc12` [Example 253, [1-(cyclohexylmethyl)-1H-indol-3-yl](4-methoxy-1-naphthalenyl)-methanone] was tested. Which fold induction at 35 µM did it give?
Its fold induction at 35 µM is 1.61.

How did the fold induction at 35 µM turn out when `O=C(Oc1ccc2ccncc2c1)c1cn(CC2CCCCC2)c2ccccc12` [Example 254, isoquinolin-7-yl 1-(cyclohexylmethyl)-1H-indole-3-carboxylate] was run?
Its fold induction at 35 µM is 1.6.

How did the fold induction at 35 µM turn out when `CCCCCn1cc(C(=O)c2cccc3c(CC)cccc23)c2ccccc21` [Example 255, (5-ethyl-1-naphthalenyl)(1-pentyl-1H-indol-3-yl)-methanone] was run?
The fold induction at 35 µM was 1.6.

`CCCCCn1cc(C(=O)Oc2ccc3ncccc3c2)c2ccccc21` [Example 256, quinolin-6-yl 1-pentyl-1H-indole-3-carboxylate] was tested. Which fold induction at 35 µM did it give?
The fold induction at 35 µM was 1.59.

Same assay, conditions: MHC-I expression, COLO 205 cells, compounds at 35 μM, 48 hours, flow cytometry (W6/32)

With `COC(=O)[C@@H](NC(=O)c1cn(CC2CCCCC2)c2ccccc12)C(C)C` [Example 229, methyl (1-(cyclohexylmethyl)-1H-indole-3-carbonyl)-1-valinate] as the compound, how does the “Induction Fold” value read?
The value was 1.72 Fold.

`CCCCCCCC/C=C\CCCCCCCC(=O)N[C@H](C)CO` [Example 242] was tested. Which “Induction Fold” value did it give?
Its value is 1.67 Fold.

With `CCCCCn1nc(C(=O)OC23CC4CC(CC(C4)C2)C3)c2ccccc21` [Example 243, (3s,5s,7s)-adamantan-1-yl 1-pentyl-1H-indazole-3-carboxylate] as the compound, how does the “Induction Fold” value read?
Its value is 1.67 Fold.

Which “Induction Fold” value does the source give for `CCCCCn1cc(C(=O)C23CC4CC(CC(C4)C2)C3)c2ccccc21` [Example 245, (1s,3s)-adamantan-1-yl(1-pentyl-1H-indol-3-yl)methanone] here?
Its value is 1.66 Fold.
